In US8455520B2, “Soluble epoxide hydrolase inhibitors, compositions containing such compounds and methods of treatment” (Merck Sharp & Dohme Corp., priority 2007, dated 2013):

Target: T1, human sEH enzyme (Homo sapiens, UniProt P34913)
T1 construct: His-tag (N, cleaved yes); made in house; host or cells: E. coli
T1 sequence (P34913 1-555): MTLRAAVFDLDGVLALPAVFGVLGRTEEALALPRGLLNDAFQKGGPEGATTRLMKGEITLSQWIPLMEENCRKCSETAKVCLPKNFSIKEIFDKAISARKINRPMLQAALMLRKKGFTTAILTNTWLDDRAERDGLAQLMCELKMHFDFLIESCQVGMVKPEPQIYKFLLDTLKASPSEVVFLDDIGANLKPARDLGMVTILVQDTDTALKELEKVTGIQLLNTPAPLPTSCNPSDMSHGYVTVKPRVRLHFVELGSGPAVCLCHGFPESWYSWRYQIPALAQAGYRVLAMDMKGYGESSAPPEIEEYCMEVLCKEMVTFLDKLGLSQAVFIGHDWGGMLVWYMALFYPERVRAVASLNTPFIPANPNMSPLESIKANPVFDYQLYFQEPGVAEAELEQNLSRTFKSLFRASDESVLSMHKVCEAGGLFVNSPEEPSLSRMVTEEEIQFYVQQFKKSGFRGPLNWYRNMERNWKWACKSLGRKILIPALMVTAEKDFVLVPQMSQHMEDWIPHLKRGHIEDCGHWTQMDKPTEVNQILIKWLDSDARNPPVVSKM
Assay: sEH human enzyme assay (fluorescence based enzyme in vitro assay)
Type: biochemical
Settings: recombinant human sEH about 1 nM, fluorescence substrate S7 10 uM, pH7.0, 25° C.; read-out: IC50 [nM] for human sEH enzyme inhibition
Description: Preparation of Recombinant sEH Human Enzyme
The DNA for expressing sEH was designed based on a […] sEH cDNA. Necessary Modifications were introduced to optimize for its expression both in E. coli and insect cells. The designed DNA fragment encodes a protein sequence that is identical to full length human sEH, and the DNA was synthesized in vitro. The DNA was then subcloned into the pET100 vector that will generate a fusion protein with an N-terminal His-tag. The recombinant protein was expressed in E. coli. The sEH enzyme was affinity purified by a Ni^++ column. His-tag was removed by Enter Kinase (EK) digestion. The purified enzyme aliquots were frozen and held at −80° C. for later use.
Fluorescence Based Enzyme In Vitro Assay
For each assay (100 ul), an aliquot of enzymes (about 1 nM final concentration) was incubated with a fluorescence substrate, S7 (10 uM final concentration), in sEH assay buffer (25 mM HEPES, pH7.0, 0.1 mg/ml BSA) in a 96-well plate. The kinetic reaction reading (Ex330/Em465) was conducted using a plate reader, Spectra max (Molecular Devices) at 25° C.

SMILES: CC1(c2ccccc2)CCCN(C(=O)NC[C@H]2C[C@@H]2c2ccccc2)C1 (stereo in doubt) [Example 28]
- IC50: 7 nM

SMILES: O=C(Nc1ccc(Cl)cc1)N1CCCC(COCc2cc(C(F)(F)F)cc(C(F)(F)F)c2)(c2ccccc2)C1 (stereo not drawn) [Example 1]
- IC50: 2 nM

SMILES: O=C(O)CCC1(c2ccccc2)CCCN(C(=O)Nc2ccc(Cl)cc2)C1 (stereo not drawn) [Example 3]
- IC50: 5 nM

SMILES: CC1N(C(=O)Nc2ccc(Cl)cc2)CCCC1(C)c1ccccc1 (stereo not drawn) [Example 4]
- IC50: 5 nM

SMILES: O=C(Nc1ccc(Cl)cc1)N1CCCC(Cc2ccc(Cl)cc2)(c2ccccc2)C1 (stereo not drawn) [Example 5]
- IC50: < 1 nM

SMILES: O=C(O)CCC1(c2ccc(-c3ccccc3)cc2)CCCN(C(=O)Nc2ccc(OC(F)(F)F)cc2)C1 (stereo not drawn) [Example 6]
- IC50: 8 nM

SMILES: COC(=O)CCC1(c2ccc(F)cc2)CCCN(C(=O)NCCCc2ccccc2)C1 (stereo not drawn) [Example 7]
- IC50: < 1 nM

SMILES: O=C(O)CCC1(c2ccc(F)cc2)CCCN(C(=O)NCCCc2ccccc2)C1 (stereo not drawn) [Example 8]
- IC50: 6 nM

SMILES: CCOC(=O)C1(Cc2c(Cl)cccc2Cl)CCCN(C(=O)Nc2ccc(C(F)(F)F)cc2)C1 (stereo not drawn) [Example 9]
- IC50: < 1 nM

SMILES: COC(=O)CCC1(c2ccccc2)CCCN(C(=O)Nc2ccc(-n3nc(C(F)(F)F)cc3C(F)(F)F)cc2)C1 (stereo not drawn) [Example 10]
- IC50: 3 nM

SMILES: O=C(O)CCC1(c2ccccc2)CCCN(C(=O)Nc2ccc(-n3nc(C(F)(F)F)cc3C(F)(F)F)cc2)C1 (stereo not drawn) [Example 11]
- IC50: 3 nM

SMILES: CC1(c2ccccc2)CCCN(C(=O)Nc2nnc(-c3ccccc3)s2)C1 (stereo not drawn) [Example 12]
- IC50: 341 nM

SMILES: CC1(c2ccccc2)CCCN(C(=O)Nc2noc3ccccc23)C1 (stereo not drawn) [Example 13]
- IC50: 59 nM

SMILES: O=C(Nc1ccc(C(F)(F)F)cc1)N1CCCC(CO)(Cc2ccccc2)C1 (stereo not drawn) [Example 14]
- IC50: 2 nM

SMILES: O=C(NC1(Cc2ccccc2)CCCN(C(=O)Nc2ccc(C(F)(F)F)cc2)C1)OCc1ccccc1 (stereo not drawn) [Example 15]
- IC50: 5 nM

SMILES: CNC(=O)C1(Cc2ccccc2)CCCN(C(=O)Nc2ccc(C(F)(F)F)cc2)C1 (stereo not drawn) [Example 16]
- IC50: 6 nM

SMILES: N#CC1(Cc2ccccc2)CCCN(C(=O)Nc2ccc(C(F)(F)F)cc2)C1 (stereo not drawn) [Example 17]
- IC50: 2 nM

SMILES: O=C(NCc1ccc(Cl)c(Cl)c1)N1CCCC(CCc2noc(C(F)(F)F)n2)(c2ccccc2)C1 (stereo not drawn) [Example 18]
- IC50: 5 nM

SMILES: O=C(Nc1ccc(C(F)(F)F)cc1)N1CCCC(Cc2ccccc2)(C(=O)NCCc2c[nH]c3ccccc23)C1 (stereo not drawn) [Example 20]
- IC50: < 1 nM

SMILES: CCOC(=O)C1(Cc2cccc3ccccc23)CCCN(C(=O)Nc2ccc(C(F)(F)F)cc2)C1 (stereo not drawn) [Example 21]
- IC50: 3 nM

SMILES: CCOC(=O)C1(Cc2nc3ccccc3[nH]2)CCCN(C(=O)Nc2ccc(C(F)(F)F)cc2)C1 (stereo not drawn) [Example 22]
- IC50: 3 nM

SMILES: O=C(Nc1ccc(C(F)(F)F)cc1)N1CCCC(Cc2ccccn2)(C(=O)OCc2ccccc2)C1 (stereo not drawn) [Example 23]
- IC50: 2 nM

SMILES: CCOC(=O)C1(Cc2nccn2Cc2ccccc2)CCCN(C(=O)Nc2ccc(C(F)(F)F)cc2)C1 (stereo not drawn) [Example 24]
- IC50: 7 nM

SMILES: CN(C)C(=O)C1(Cc2ccccc2)CCCN(C(=O)Nc2ccc(C(F)(F)F)cc2)C1 (stereo not drawn) [Example 25]
- IC50: 3 nM

SMILES: CC1(c2ccccc2)CCCN(C(=O)NC2CC2c2ccccc2)C1 (stereo not drawn) [Example 27]
- IC50: 1 nM

SMILES: CC1(c2ccccc2)CCCN(C(=O)NC2C3CC4CC(C3)CC2C4)C1 (stereo not drawn) [Example 29]
- IC50: 10 nM

SMILES: CC1(c2ccccc2)CCCN(C(=O)NCCc2ccc(Cl)cc2)C1 (stereo not drawn) [Example 30]
- IC50: < 1 nM

SMILES: CC1(c2ccccc2)CCCN(C(=O)NCCCCc2ccccc2)C1 (stereo not drawn) [Example 31]
- IC50: 1 nM

SMILES: CC1(c2ccccc2)CCCN(C(=O)Nc2cccnc2)C1 (stereo not drawn) [Example 32]
- IC50: 306 nM

SMILES: CC1(c2ccccc2)CCCN(C(=O)NCCCc2cccnc2)C1 (stereo not drawn) [Example 33]
- IC50: 6 nM

SMILES: CC1(c2ccccc2)CCCN(C(=O)NCCc2ccc3nccnc3c2)C1 (stereo not drawn) [Example 34]
- IC50: 5 nM

SMILES: CC1(c2ccccc2)CCCN(C(=O)NCC2CCc3ccccc3C2)C1 (stereo not drawn) [Example 35]
- IC50: 2 nM

SMILES: CC1(c2ccccc2)CCCN(C(=O)NC2CCc3ccccc3C2)C1 (stereo not drawn) [Example 36]
- IC50: 1 nM

SMILES: CC1(c2ccccc2)CCCN(C(=O)NC2CCc3ccccc3CC2)C1 (stereo not drawn) [Example 37]
- IC50: 2 nM

SMILES: CC1(c2ccccc2)CCCN(C(=O)NCc2nc3ccccc3s2)C1 (stereo not drawn) [Example 38]
- IC50: 30 nM

SMILES: CC1(c2ccccc2)CCCN(C(=O)NCc2ccc(-c3ccccc3Cl)cc2)C1 (stereo not drawn) [Example 40]
- IC50: 6 nM

SMILES: CC1(c2ccccc2)CCCN(C(=O)NCc2ccc(-c3cccnc3)cc2)C1 (stereo not drawn) [Example 41]
- IC50: 1.5 nM

SMILES: CC1(c2ccccc2)CCCN(C(=O)NCc2ccc(-c3ccc4[nH]ccc4c3)cc2)C1 (stereo not drawn) [Example 42]
- IC50: 7 nM

SMILES: CC1(c2ccccc2)CCCN(C(=O)NCc2ccc(-c3ccc4cn[nH]c4c3)cc2)C1 (stereo not drawn) [Example 43]
- IC50: 6 nM

SMILES: CC1(c2ccccc2)CCCN(C(=O)NCc2ccc(-c3cccc4cnccc34)cc2)C1 (stereo not drawn) [Example 44]
- IC50: 3 nM

SMILES: NC(=O)CCC1(c2ccccc2)CCCN(C(=O)Nc2ccc(Cl)cc2)C1 (stereo not drawn) [Example 45]
- IC50: 5 nM

SMILES: N#CCCC1(c2ccccc2)CCCN(C(=O)Nc2ccc(Cl)cc2)C1 (stereo not drawn) [Example 46]
- IC50: 3 nM

SMILES: O=C(Nc1ccc(Cl)cc1)N1CCCC(CCc2nnn[nH]2)(c2ccccc2)C1 (stereo not drawn) [Example 47]
- IC50: 5 nM

SMILES: O=C(CCC1(c2ccccc2)CCCN(C(=O)Nc2ccc(Cl)cc2)C1)Nc1nnn[nH]1 (stereo not drawn) [Example 48]
- IC50: 1 nM

SMILES: Cc1nc(C2(C)CCCN(C(=O)Nc3ccc(C(F)(F)F)cc3)C2)no1 (stereo not drawn) [Example 49]
- IC50: 5 nM

SMILES: CNC(=O)CCC1(c2ccccc2)CCCN(C(=O)Nc2ccc(Cl)cc2)C1 (stereo not drawn) [Example 50]
- IC50: 5 nM

SMILES: COC(=O)CCCC1(c2ccccc2)CCCN(C(=O)Nc2ccc(Cl)cc2)C1 (stereo not drawn) [Example 51]
- IC50: < 1 nM

SMILES: O=C(O)CCCC1(c2ccccc2)CCCN(C(=O)Nc2ccc(Cl)cc2)C1 (stereo not drawn) [Example 52]
- IC50: 12 nM
